Values belong to the compound of their own block, whether it stands above or below them.
How the values were obtained:
Dga1pΔ85 [1] = target: T1, Dga1pΔ85 (Yarrowia lipolytica, UniProt Q6C3R2); experiment: fluorescent DGAT assay, HPTLC of NBD-TG; format: biochemical
T1 construct: gene YALI0_E32769g; lacks 85 N-terminal residues (incl. putative TM domain) of the 515-residue protein; N-terminal MBP fusion kept, ~90 kDa, pMalc2X, E. coli BL21 (DE3) pLysS; dimer on SEC

[2] = target: MBP-Dga1pΔ85 construct (Yarrowia lipolytica); experiment: SEC; Hiload 16/60 Superdex 200 column, 4°C; amylose-purified fractions incubated overnight with lysis buffer (50 mM Tris-HCl pH 7.5, 150 mM NaCl, 5% glycerol, 1 mM EDTA, 1 mM TCEP) with 0.5% N-lauroyl sarcosine before the column; major peak taken as a dimer
Dga1pΔ19 [3] = target: T2, Dga1pΔ19 (Yarrowia lipolytica, UniProt Q6C3R2); experiment: fluorescent DGAT assay, HPTLC of NBD-TG; format: biochemical; conditions: acyl donor; 100 μM NBD-DG, 20 mM MgCl2, Hepes pH 7.6, 0.01% tween 20, 31°C
T2 construct: gene YALI0_E32769g; lacks 19 N-terminal residues of the printed 515-residue protein; N-terminal MBP fusion kept, ~99 kDa, pMalc2X, E. coli BL21 (DE3) pLysS; dimer on SEC

[4] = target: MBP-Dga1pΔ19 fusion protein (Yarrowia lipolytica); experiment: SEC; Hiload 16/60 Superdex 200 column, 4°C; amylose-purified fractions incubated overnight with lysis buffer (50 mM Tris-HCl pH 7.5, 150 mM NaCl, 5% glycerol, 1 mM EDTA, 1 mM TCEP) with 0.5% N-lauroyl sarcosine before the column; major peak taken as a dimer
Dga1pΔ19 [5] = target: T2, Dga1pΔ19; experiment: fluorescent DGAT assay, HPTLC of NBD-TG; format: biochemical; conditions: 1 mM niacin; 100 μM C18:0-CoA, 100 μM NBD-DG, 20 mM MgCl2, Hepes pH 7.6, 31°C; noncompetitive (per cited literature)
Dga1pΔ85 [6] = target: T1, Dga1pΔ85; experiment: fluorescent DGAT assay, HPTLC of NBD-TG; format: biochemical; conditions: 1 mM niacin; 100 μM C18:0-CoA, 100 μM NBD-DG, 20 mM MgCl2, Hepes pH 7.6, 31°C; noncompetitive (per cited literature)

T1 sequence (Q6C3R2 entry or part of it, stated change not applied): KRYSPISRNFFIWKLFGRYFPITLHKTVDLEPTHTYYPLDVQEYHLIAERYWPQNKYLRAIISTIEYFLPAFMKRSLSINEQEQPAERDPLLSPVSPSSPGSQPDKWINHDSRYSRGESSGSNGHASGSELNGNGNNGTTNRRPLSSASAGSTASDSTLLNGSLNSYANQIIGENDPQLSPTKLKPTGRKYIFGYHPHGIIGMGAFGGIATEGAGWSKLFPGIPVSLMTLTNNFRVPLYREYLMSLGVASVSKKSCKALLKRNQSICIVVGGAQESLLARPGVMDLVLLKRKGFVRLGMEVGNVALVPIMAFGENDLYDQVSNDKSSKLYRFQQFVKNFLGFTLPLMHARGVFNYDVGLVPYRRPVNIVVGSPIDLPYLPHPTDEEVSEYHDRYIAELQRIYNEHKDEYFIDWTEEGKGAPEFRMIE
T2 sequence (Q6C3R2 entry or part of it, stated change not applied): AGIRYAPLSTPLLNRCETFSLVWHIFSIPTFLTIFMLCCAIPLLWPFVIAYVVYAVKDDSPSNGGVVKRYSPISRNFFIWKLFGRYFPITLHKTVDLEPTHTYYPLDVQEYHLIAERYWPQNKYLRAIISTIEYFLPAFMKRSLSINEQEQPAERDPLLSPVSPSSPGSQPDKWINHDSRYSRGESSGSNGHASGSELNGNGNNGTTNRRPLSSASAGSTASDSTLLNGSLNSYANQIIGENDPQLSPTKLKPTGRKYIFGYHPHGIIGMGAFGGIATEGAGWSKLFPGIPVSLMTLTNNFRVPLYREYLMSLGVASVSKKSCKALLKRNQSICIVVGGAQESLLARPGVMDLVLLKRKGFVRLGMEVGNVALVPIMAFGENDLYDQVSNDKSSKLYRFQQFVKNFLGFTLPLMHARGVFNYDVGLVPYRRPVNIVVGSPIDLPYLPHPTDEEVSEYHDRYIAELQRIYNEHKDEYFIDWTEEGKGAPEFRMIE

Compound: CCCCCCCCCC(=O)O[C@@H](CO)COC(=O)CCCCCCCCCNc1ccc([N+](=O)[O-])c2nonc12 [NBD-DG]
fluorescent DGAT assay, HPTLC of NBD-TG (Dga1pΔ85 [1]; acyl acceptor, labelled compound, 100 μM with C18:0-CoA, 20 mM MgCl2, Hepes pH 7.6, 31°C): both recombinant enzymes harbored increasing DGAT activities in the presence of various C18:0-CoA concentrations

stoichiometry N [2]: 2
Compound: MBP-Dga1pΔ85 construct (domain or fragment)

Compound: CCCCCCCCCCCCCCCCCC(=O)SCCNC(=O)CCNC(=O)[C@H](O)C(C)(C)COP(=O)(O)OP(=O)(O)OC[C@H]1O[C@@H](n2cnc3c(N)ncnc32)[C@H](O)[C@@H]1OP(=O)(O)O [stearoyl-CoA]
fluorescent DGAT assay, HPTLC of NBD-TG (Dga1pΔ19 [3]): C18:0-CoA was an efficient acyl donor for both enzyme versions
fluorescent DGAT assay, HPTLC of NBD-TG (Dga1pΔ85 [1]; acyl donor, 100 μM NBD-DG, 20 mM MgCl2, Hepes pH 7.6, 0.01% tween 20, 31°C): C18:0-CoA was an efficient acyl donor for both enzyme versions

stoichiometry N [4]: 2
Compound: MBP-Dga1pΔ19 fusion protein (domain or fragment)

Compound: O=C(O)c1cccnc1 [niacin]
% decrease of TG production at 1 mM (Dga1pΔ19 [5]): 70%
% decrease of TG production at 1 mM (Dga1pΔ85 [6]): 99.5%

Reference: publication PMC5079557, “Expression of Soluble Forms of Yeast Diacylglycerol Acyltransferase 2 That Integrate a Broad Range of Saturated Fatty Acids in Triacylglycerols” (PLoS ONE, 2016)
